The target of assay [1] is Histone-lysine N-methyltransferase EZH2 (Homo sapiens, UniProt Q15910). Put plainly: Inhibition of EZH2 (unknown origin).
Assay [2] is described as follows: Inhibition of PI3K (unknown origin). On the set-up: species or system Homo sapiens.

The record followed here is ChEMBL document CHEMBL5230141, “Focused Libraries for Epigenetic Drug Discovery: The Importance of Isosteres” (J Med Chem, 2021).

pEC50, pKd: −log10 of the molar value.

By pEC50 is commonly meant the EC50 on a negative log10 scale, so that one unit is a factor of ten. One may read the pKd as the negative decadic logarithm of the Kd, by convention in mol/L.

Sequence of Histone-lysine N-methyltransferase EZH2 (Q15910 whole entry): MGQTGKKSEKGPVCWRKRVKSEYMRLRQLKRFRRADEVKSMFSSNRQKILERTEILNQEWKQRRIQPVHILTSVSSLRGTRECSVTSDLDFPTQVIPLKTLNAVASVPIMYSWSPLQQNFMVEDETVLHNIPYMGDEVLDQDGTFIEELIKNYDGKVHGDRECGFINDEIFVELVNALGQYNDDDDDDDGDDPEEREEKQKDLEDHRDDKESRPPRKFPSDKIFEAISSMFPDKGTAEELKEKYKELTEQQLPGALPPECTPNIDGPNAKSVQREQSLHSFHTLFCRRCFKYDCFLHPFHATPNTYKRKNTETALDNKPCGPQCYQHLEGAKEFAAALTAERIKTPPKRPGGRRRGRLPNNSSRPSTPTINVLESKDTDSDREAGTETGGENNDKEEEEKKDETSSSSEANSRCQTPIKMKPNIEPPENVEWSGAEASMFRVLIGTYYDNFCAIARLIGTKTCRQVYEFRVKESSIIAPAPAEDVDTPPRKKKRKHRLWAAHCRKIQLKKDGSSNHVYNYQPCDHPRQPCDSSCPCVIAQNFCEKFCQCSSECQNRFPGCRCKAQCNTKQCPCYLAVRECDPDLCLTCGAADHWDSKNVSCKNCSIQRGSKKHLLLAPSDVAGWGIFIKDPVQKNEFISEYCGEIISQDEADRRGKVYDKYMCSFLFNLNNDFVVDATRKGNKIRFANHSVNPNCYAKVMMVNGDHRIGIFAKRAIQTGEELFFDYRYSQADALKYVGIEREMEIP

In the case of `Cc1cc(C)c(CNC(=O)c2cc(C)n(C3CCCCC3)c2C)c(=O)[nH]1`, in assay [1], the pEC50 is 5.47.

Compound `CC(C)Oc1ccc(-c2nn([C@@H](C)c3oc4ccc(F)cc4c(=O)c3-c3cccc(F)c3)c3ncnc(N)c23)cc1F` [UMBRALISIB] showed a pKd in assay [2] of 8.21.
